The target of experiment [1] is T1, PCSK9 (Homo sapiens, UniProt Q8NBP7). The following applies: clinical trials, compared to placebo (Elbitar 2016); cited from earlier work.
Target sequence in this assay (Q8NBP7 153-692): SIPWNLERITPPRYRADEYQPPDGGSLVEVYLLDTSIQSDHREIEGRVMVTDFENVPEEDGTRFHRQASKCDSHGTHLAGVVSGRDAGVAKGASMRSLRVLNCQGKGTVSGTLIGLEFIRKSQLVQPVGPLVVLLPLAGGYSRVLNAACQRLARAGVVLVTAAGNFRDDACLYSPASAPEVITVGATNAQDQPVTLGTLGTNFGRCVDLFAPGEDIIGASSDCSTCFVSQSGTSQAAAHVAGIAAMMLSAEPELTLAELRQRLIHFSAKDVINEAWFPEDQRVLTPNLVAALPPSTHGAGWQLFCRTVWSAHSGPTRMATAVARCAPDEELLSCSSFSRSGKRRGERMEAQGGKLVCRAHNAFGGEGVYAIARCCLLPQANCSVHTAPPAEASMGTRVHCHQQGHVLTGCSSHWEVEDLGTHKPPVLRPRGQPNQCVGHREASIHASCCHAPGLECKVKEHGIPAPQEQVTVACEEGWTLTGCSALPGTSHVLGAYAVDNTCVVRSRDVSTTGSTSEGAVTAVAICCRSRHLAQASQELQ
For experiment [2], the target named is T2, potassium ion channel hERG (human Ether-á-go-go-Related Gene) (Homo sapiens, UniProt Q12809).
T2 construct: expressed in transfected cells; host or cells: Chinese hamster ovary K1 (CHO)
The experiment in a line: Assay 5 - hERG assay (SyncroPatch 384PE patch clamp, CHO cells). The class given is cell-based. The following applies: geometric mean, CHO cells over-expressing hERG, read-out: Assay 5 (hERG Hu CHO IF EPh CR-Syncro) GMean IC50. The gist of the method: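 Automated whole-cell patch clamp at room temperature on CHO-K1 cells over-expressing hERG, using K-fluoride/escin internal solution (pH 7.2) and NMDG-containing external solution (pH 7.4). Compounds were tested in a 6-point cumulative format, 0.33% final DMSO. Wells accepted only with seal >30 MegaOhm, Z′>0.4 and current >0.2 nA.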
In general terms: The hERG channel carries a current that helps repolarise heart muscle cells.

The target of experiment [3] is GSK3b (Glycogen synthase kinase-3 beta) (Homo sapiens, UniProt P49841). The experiment in a line: Assay 6 - GSK3b assay (ThermoFisher, FRET Z-Lyte). The note with it: geometric mean; ATP Conc: 10.000 μM; read-out: Assay 6 (GSK3B FRET-Z-Lyte CR) GMean IC50 (μM) ATP Conc: 10.000. The class given is biochemical. In a few lines: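 Z-Lyte FRET kinase assay: 0.22-0.92 ng GSK3β with 2 μM Ser/Thr 09 peptide in 50 mM HEPES pH 7.5, 10 mM MgCl2, 1 mM EGTA, 0.01% BRIJ-35, 60 min at room temperature, then 60 min development. Compounds in 1% DMSO, 10-point 3-fold dilutions from 10 μM; sigmoidal dose-response fit.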
Chain of GSK3b (Glycogen synthase kinase-3 beta) (P49841 whole entry): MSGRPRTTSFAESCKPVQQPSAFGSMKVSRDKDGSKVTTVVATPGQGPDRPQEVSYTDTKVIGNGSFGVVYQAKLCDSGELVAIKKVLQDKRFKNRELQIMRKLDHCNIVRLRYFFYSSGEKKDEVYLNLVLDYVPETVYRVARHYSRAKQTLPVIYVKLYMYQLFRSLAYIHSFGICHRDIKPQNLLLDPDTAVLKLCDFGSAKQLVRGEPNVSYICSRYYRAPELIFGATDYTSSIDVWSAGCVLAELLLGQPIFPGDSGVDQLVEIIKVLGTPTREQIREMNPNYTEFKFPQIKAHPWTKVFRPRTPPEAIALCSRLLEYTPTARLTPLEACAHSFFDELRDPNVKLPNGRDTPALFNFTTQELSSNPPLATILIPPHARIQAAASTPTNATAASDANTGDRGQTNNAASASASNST

Experiment [4] addresses T3, PCSK9 (Homo sapiens, UniProt Q8NBP7, G670E/V474I). The experiment in a line: cell-based.
Target sequence in this assay (Q8NBP7 31-152): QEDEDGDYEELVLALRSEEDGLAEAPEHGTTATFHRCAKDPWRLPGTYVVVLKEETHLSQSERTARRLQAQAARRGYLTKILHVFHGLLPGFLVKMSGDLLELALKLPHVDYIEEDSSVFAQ
Target sequence in this assay (Q8NBP7 153-692 V474I/G670E): as the sequence (Q8NBP7 153-692) above, with V322I, G518E counted along it
Source text: This assay measures for PCSK9 antagonist activity based on a test compound's capacity to restore LDL-C uptake in HepG2 cells. The assay is based on exogenous PCSK9 and LDL-C complexed with a pH-sensitive dye. Outside the cells, at neutral pH, the pHrodo Red-LDL is dimly fluorescent but upon LDLR mediated endocytosis it fluoresces brightly. PCSK9 traffics the LDLR to intracellular degradation and reduces uptake of LDL-C. Inhibition of PCSK9 reduces LDLR degradation and the increased LDL-C uptake is quantified by fluorescence microscopy.
Cell medium: MEM supplemented with 10% FBS, 1× NEAA and Sodium Pyruvate
Assay medium: OptiMem supplemented with penicillin/streptomycin
Cells: HepG2 (ATCC #HB-8065)
Cryopreserved HepG2 cells were thawed in assay medium and centrifuged for 5 min at 250 g. Supernatant was discarded and the cell pellet resuspended in cell medium and counted with a Nucleocounter. Cells were again centrifuged 5 min at 250 g and the pellet was resuspended to 500000 cells/mL in assay medium. • 2. 20 μL of above cell mix was dispensed into black pclear TC treated 384 well plates with Multidrop Combi and left at room temperature for 20 minutes. • 3. Plates were incubated at 37° C., 5% CO2 for 24 h
Test compounds were prepared in concentration response in DMSO with a half-log dilution factor in DMSO in Echo 384 LDV plates starting at 10 mM. • 2. 30 nL of above test compounds were dispensed with Echo 655 to cells for a top concentration of 10 μM • 3. […] Plates were incubated at 37° C., 5% CO2 for 24 h
10 μL pHrodo Red-LDL in assay medium was dispensed to cells with Multidrop Combi for 6 μg/mL • 2. Plates were incubated at 37° C., 5% CO2 and imaged with the Incucyte S3 after 4 h and 24 h
Image data was processed using Incucyte 2021, a software to identify cells and red fluorescent intensity. Screener was used to further process data. Data was normalized as % effect of the signal between median values of the on-plate controls of DMSO and 100 nM Evolocumab according to the formula % effect=−100*(x−DMSO)/(Evolocumab−DMSO) where x equals the measured signal. Concentration response data of the normalized values were fitted using a four-parameter logistic fit.
Experiment [5] deals with T3, PCSK9. The experiment in a line: biochemical.
Target sequence in this assay (Q8NBP7 with tags, fused parts or gaps V474I/G670E): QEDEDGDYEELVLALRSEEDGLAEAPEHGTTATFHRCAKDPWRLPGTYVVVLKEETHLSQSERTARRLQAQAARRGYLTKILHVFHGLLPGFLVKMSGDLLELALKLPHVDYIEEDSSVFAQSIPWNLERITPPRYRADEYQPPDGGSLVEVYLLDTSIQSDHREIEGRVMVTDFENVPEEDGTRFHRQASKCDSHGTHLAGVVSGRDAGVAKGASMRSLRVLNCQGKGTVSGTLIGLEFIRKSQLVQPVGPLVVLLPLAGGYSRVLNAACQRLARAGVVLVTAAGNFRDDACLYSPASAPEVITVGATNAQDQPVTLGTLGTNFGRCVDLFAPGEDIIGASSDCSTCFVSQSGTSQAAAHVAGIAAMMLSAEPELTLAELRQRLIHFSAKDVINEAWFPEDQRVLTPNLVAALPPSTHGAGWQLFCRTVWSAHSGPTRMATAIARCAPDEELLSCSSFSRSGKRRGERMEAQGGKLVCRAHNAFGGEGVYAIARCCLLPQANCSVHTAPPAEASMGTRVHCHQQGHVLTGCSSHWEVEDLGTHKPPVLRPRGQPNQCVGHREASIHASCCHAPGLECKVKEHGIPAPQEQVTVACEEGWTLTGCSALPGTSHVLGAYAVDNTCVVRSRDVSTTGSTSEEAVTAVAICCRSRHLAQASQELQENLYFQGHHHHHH
Experiment [6] concerns the target T1, PCSK9. The experiment is described as follows: Assay 2 - Biophysical human PCSK9 assay (SPR, Biacore). The class given is binding. Also on record: biotinylated human PCSK9 (31-692)-Avi-His6. The following applies: geometric mean; SPR single-cycle kinetics, 30° C.; read-out: Assay 2 (PCSK9 BIAcore DBA CR) GMean Kd. Here is the method: The SPR binding experiments were performed on a Biacore S200 optical biosensor unit at 30° C. A Series S Sensor Chip SA that is designed to bind biotinylated molecules for interaction analysis in Biacore systems was equilibrated at room temperature prior to use. The running buffer for protein tethering and subsequent ligand binding experiments was 10 mM HEPES pH 7.4, 150 mM NaCl, 0.05% (v/v) Tween 20 pH 7.4.
For the surface tethering of PCSK9, biotinylated human PCSK9 (31-692)-Avi-His6 at a concentration of 0.5 mg/mL was used. Prior to the surface tethering, the surface was exposed to a solution of 50 mM NaOH, 500 mM NaCl via 3 consecutive injections of this solution with a contact time of 60 s and a flowrate of 10 μL min- to remove non-conjugated streptavidin. The PCSK9 protein was diluted to a concentration of 20 μg/mL using running buffer and injected with a contact time of 180-300 s and a flowrate of 10 μL min^−1 over a single flow channel (typically flow channel 2 or flow channel 4) with the aim to achieve protein capture levels of >5000 response units (RU). Remaining biotin binding sites were blocked via 2 consecutive injections of a 10 μM D-biotin solution in running buffer with a contact time of 60 s and a flowrate of 10 μL min^−1 over all flow-channels.
The binding experiments were all performed at a flow rate of 30 μL min^−1 and by employing the method of single-cycle kinetics. This approach involves the sequential injection of a compound concentration series without regeneration steps. A contact time between 90-150 s was selected, which was followed by a 40 min dissociation phase to allow for a proper estimation of the dissociation rate constant. Test compounds were delivered in DMSO at a concentration of 10 mM and a digital dispenser HP D300 was used to set up the compound concentration series using 6 concentrations. The tested concentrations have been 30, 100, 300, 1000, 3000 and 10000 nM. Prior to injecting any compound, the surfaces were equilibrated by injecting running buffer over them in three separate pulses. The data collection rate was set to 10 Hz.
The raw sensorgrams of the compound injections were first subjected to reference subtraction (subtracting the signal from flow channel 1 and/or 3 from the signal from channels 2 and/or 4 respectively) and then blank subtraction (subtracting the signal from injecting DMSO controls from the reference subtracted data). The resulting double-referenced sensorgrams were then fitted using a 1:1 binding interaction model using the manufactures software package to extract kinetic- and affinity data.
Target sequence in this assay (Q8NBP7 31-692): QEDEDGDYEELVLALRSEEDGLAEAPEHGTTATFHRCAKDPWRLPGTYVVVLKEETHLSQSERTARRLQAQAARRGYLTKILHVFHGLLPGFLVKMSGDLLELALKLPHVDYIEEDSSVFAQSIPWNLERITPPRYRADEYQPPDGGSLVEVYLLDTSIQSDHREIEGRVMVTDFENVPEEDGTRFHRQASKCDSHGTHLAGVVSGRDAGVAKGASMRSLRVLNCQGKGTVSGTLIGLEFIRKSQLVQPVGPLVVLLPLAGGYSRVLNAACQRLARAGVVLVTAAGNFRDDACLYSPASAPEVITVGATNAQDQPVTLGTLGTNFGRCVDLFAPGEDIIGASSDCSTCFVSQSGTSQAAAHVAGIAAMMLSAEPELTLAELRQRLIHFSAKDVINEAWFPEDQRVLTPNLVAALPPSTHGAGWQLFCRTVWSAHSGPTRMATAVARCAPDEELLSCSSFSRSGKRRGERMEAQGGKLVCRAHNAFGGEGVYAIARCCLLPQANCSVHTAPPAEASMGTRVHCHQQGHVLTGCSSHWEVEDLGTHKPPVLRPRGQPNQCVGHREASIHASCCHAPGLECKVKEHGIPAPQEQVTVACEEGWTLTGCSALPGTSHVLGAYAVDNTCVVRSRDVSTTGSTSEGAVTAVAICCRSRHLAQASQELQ

T2 sequence (Q12809 whole entry): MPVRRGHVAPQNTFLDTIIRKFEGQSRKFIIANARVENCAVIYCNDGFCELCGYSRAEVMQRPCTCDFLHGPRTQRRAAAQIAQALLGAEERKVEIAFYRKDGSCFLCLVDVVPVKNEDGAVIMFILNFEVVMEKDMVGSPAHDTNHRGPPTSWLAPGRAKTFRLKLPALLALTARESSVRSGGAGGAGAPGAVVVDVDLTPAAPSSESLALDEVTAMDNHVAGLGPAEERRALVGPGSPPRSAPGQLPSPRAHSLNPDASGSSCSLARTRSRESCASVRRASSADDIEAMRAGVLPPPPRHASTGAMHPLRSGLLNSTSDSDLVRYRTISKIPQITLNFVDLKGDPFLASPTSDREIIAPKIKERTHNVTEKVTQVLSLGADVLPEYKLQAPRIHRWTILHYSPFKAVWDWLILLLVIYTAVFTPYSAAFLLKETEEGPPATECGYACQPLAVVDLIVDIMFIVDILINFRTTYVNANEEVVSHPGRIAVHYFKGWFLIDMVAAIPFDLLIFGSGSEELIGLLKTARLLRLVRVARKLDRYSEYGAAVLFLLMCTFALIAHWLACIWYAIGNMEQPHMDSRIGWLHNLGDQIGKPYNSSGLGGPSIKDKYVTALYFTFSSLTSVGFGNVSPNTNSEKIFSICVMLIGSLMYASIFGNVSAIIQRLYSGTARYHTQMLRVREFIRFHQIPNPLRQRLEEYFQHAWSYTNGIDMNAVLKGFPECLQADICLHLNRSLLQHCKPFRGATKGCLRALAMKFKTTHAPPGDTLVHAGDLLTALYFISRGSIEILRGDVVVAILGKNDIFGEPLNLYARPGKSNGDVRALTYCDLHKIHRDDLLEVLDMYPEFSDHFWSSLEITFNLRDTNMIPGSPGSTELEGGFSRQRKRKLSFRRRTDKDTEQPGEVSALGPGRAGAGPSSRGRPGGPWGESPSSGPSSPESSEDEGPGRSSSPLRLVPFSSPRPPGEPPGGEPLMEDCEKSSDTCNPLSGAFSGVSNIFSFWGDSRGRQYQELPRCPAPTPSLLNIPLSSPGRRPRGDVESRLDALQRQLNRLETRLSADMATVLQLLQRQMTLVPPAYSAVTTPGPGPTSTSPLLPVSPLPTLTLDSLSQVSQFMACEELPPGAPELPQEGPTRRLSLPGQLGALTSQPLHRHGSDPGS

With alirocumab, the “decrease in LDL levels” value in experiment [1] was “about 50%”.
On to `COc1ccc(=O)n(-c2ccc(N[C@H]3CC[C@H](Nc4nc5cccnc5s4)C3)nc2)c1` [Example 25, 5-Methoxy-6′-(((1S,3S)-3-(thiazolo[5,4-b]pyridin-2-ylamino)cyclopentyl)amino)-2H-[1,3′-bipyridin]-2-one], for which the IC50 is above 40000 nM in experiment [2], 0.053 µM in experiment [3], 51 nM in experiment [4] and 5.6 nM in experiment [5]. The Kd in experiment [6] was 4 nM.
For `Cn1ccc(=O)n(-c2ccc(N[C@H]3CC[C@H](Nc4nc5cccnc5s4)C3)nc2)c1=O` [Example 82, 1-Methyl-3-(6-(((1S,3S)-3-(thiazolo[5,4-b]pyridin-2-ylamino)cyclopentyl)amino)pyridin-3-yl)pyrimidine-2,4(1H,3H)-dione] the same measures were above 40100 nM, above 10 µM, 124 nM, 2.3 nM and 1 nM.
For `O=c1ccc2cccnc2n1-c1ccc(N[C@H]2CC[C@H](Nc3nc4cccnc4[nH]3)C2)nc1` [Example 34, 1-(6-(((1S,3S)-3-((3H-Imidazo[4,5-b]pyridin-2-yl)amino)cyclopentyl)amino)pyridin-3-yl)-1,8-naphthyridin-2(1H)-one] the same measures were above 40000 nM, above 10 µM, 98 nM, 1.2 nM and 1 nM.

The IC50 is the midpoint of a concentration-inhibition curve. As usually defined, the Kd is the equilibrium constant for the complex coming apart.

Source of the values: patent US20240239767A1 (AstraZeneca AB, priority 2022, published 2024).
